# Results: publication PMC2556205 (Journal of medicinal chemistry, 2008)
# What was measured:
# [1] = biological target: T1, purified recombinant rat FAAH (Rattus norvegicus, UniProt P97612); assay: FAAH inhibition assay, 14C-oleamide hydrolysis, Dixon plot; type: biochemical; conditions: for FAAH inhibition (in words): pH 9 assay conditions
# T1 sequence (P97612 30-579 limits assumed): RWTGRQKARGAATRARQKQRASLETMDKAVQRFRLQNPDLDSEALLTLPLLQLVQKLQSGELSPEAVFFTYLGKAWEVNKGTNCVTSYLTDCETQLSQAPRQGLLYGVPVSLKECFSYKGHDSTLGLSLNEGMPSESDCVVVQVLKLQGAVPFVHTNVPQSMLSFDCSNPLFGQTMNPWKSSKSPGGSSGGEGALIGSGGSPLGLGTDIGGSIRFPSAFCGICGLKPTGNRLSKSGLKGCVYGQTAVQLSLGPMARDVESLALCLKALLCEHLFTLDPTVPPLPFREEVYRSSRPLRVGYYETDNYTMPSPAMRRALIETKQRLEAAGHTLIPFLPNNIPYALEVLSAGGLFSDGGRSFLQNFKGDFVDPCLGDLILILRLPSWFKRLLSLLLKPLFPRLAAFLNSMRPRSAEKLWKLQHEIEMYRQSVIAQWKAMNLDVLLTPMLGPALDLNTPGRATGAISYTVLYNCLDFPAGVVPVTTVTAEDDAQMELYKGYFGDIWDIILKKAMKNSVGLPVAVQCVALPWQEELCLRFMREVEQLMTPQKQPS
# [2] = tested on: mild thermal injury (MTI) model of peripheral pain; conditions: 10–20 mg/kg, i.p.; cited from earlier work
# [3] = tested on: endogenous anandamide levels; conditions: cited from earlier work
# P450 3A4 = conditions: cited from earlier work
# P450 2C9 = conditions: cited from earlier work
# [4] = tested on: formalin test of noxious chemical pain; conditions: 1st and 2nd phase; 10–20 mg/kg, i.p.; cited from earlier work
# [5] = tested on: spinal nerve ligation (SNL) model of neuropathic pain; conditions: 10–20 mg/kg, i.p.; cited from earlier work
# [6] = tested on: human ether-a-go-go related gene (hERG); conditions: cited from earlier work
# P450 2D6 = conditions: cited from earlier work
# [7] = Cerep assay profiling; cited from earlier work
# tail flick assay = conditions: 10–20 mg/kg, i.p.; cited from earlier work
# [8] = tested on: cannabinoid (CB1) receptor; conditions: cited from earlier work
# [9] = tested on: cannabinoid (CB2) receptor; conditions: cited from earlier work
# [10] = biological target: T1, purified recombinant rat FAAH; conditions: cited from earlier work
# hot plate assay = conditions: 10–20 mg/kg, i.p.; cited from earlier work
# FAAH knockout mice = conditions: cited from earlier work
# [11] = tested on: vanilloid (TRP) receptors; conditions: cited from earlier work
structure (smiles),measurement,setting,value
Cn1nnc(C(=O)CCCCCCc2ccccc2)n1 [19a],FAAH inhibition (in words),[1],displayed FAAH inhibition at levels consistent with this series
Cn1nnnc1C(=O)CCCCCCc1ccccc1 [19b],FAAH inhibition (in words),[1],displayed FAAH inhibition at levels consistent with this series
O=C(CCCCCCc1ccccc1)c1ncc(-c2ccccn2)o1 [compound 2],"analgesic activity, MTI model",[2],analgesic activity
same,endogenous anandamide levels,[3],increases endogenous anandamide levels
same,inhibition of P450 3A4,P450 3A4,does not significantly inhibit
same,inhibition of P450 2C9,P450 2C9,does not significantly inhibit
same,"analgesic activity, formalin test",[4],analgesic activity
same,"analgesic activity, SNL model",[5],analgesic activity
same,inhibition of hERG,[6],does not significantly inhibit
same,inhibition of P450 2D6,P450 2D6,does not significantly inhibit
same,offsite target activity,[7],lack significant offsite target activity
same,"analgesic activity, tail flick assay",tail flick assay,analgesic activity
same,CB1 receptor binding,[8],does not bind
same,CB2 receptor binding,[9],does not bind
same,mode of inhibition (Lineweaver–Burk analysis),[10],"reversible, competitive inhibition"
same,"analgesic activity, hot plate assay",hot plate assay,analgesic activity
same,analgesia in FAAH knockout mice,FAAH knockout mice,ineffective at promoting analgesia
same,vanilloid (TRP) receptor binding,[11],does not bind
O=C(CCCCCCc1ccccc1)c1cnc(-c2ccccn2)o1 [compound 6],loss of FAAH inhibition,"[1]; oxazole isomer, location of the oxazole nitrogen atom switched, compared with 2",> 4000 fold
